# Measurements as given in publication PMC4303209, “A novel phosphatidylinositol 3-kinase (PI3K) inhibitor directs a potent FOXO-dependent, p53-independent cell cycle arrest phenotype characterized by the differential induction of a subset of FOXO-regulated genes” (Breast Cancer Research : BCR, 2014).
# Tested on: MCF-7 breast cancer cells
# Assay: Microarray gene expression analysis (Agilent whole human genome 4 x 44K; compound vs DMSO, LIMMA log2 fold change)
# Assay type: cell-based
# Details: Apoptosis genes
smiles,measurement,setting,value
Oc1cccc(-c2nc(N3CCOCC3)c3oc4ncccc4c3n2)c1 [PI-103],HSPD1 log2FC,Gene 3329,-0.080
same,HSPE1 log2FC,Gene 3336,-0.309
same,HTR2B log2FC,Gene 3357,-0.397
same,IAPP log2FC,Gene 3375,-0.066
same,ID1 log2FC,Gene 3397,0.070
same,ID3 log2FC,Gene 3399,-0.082
same,IFI16 log2FC,Gene 3428,0.334
same,IFI27 log2FC,Gene 3429,-0.196
same,IFIT2 log2FC,Gene 3433,1.643
same,IFIT3 log2FC,Gene 3437,0.140
same,IFNG log2FC,Gene 3458,-0.040
same,IGBP1 log2FC,Gene 3476,0.178
same,IGF1 log2FC,Gene 3479,0.051
same,IGF1R log2FC,Gene 3480,0.084
same,IGF2R log2FC,Gene 3482,0.351
same,IGFBP3 log2FC,Gene 3486,0.086
same,IKBKB log2FC,Gene 3551,0.122
same,IL1B log2FC,Gene 3553,0.035
same,IL1RN log2FC,Gene 3557,-0.235
same,IL2 log2FC,Gene 3558,-0.008
same,IL4 log2FC,Gene 3565,-0.010
same,IL6 log2FC,Gene 3569,0.006
same,IL6R log2FC,Gene 3570,0.551
same,IL6ST log2FC,Gene 3572,0.257
same,IL7 log2FC,Gene 3574,0.210
same,IL10 log2FC,Gene 3586,-0.050
same,TNFRSF9 log2FC,Gene 3604,-0.328
same,ING2 log2FC,Gene 3622,0.264
same,INHBA log2FC,Gene 3624,-0.687
same,INHBB log2FC,Gene 3625,-0.799
same,INS log2FC,Gene 3630,-0.043
same,INPP5D log2FC,Gene 3635,-0.048
same,INSL3 log2FC,Gene 3640,-0.069
same,IRAK1 log2FC,Gene 3654,-0.233
same,IRF1 log2FC,Gene 3659,-0.382
same,IRF3 log2FC,Gene 3661,-0.472
same,IRF5 log2FC,Gene 3663,1.340
same,IRF7 log2FC,Gene 3665,0.353
same,ITGA1 log2FC,Gene 3672,0.190
same,ITGA5 log2FC,Gene 3678,-0.454
same,ITGAV log2FC,Gene 3685,0.599
same,ITGB1 log2FC,Gene 3688,0.583
same,ITPR1 log2FC,Gene 3708,0.249
same,JAG2 log2FC,Gene 3714,0.522
same,JAK2 log2FC,Gene 3717,0.369
same,JAK3 log2FC,Gene 3718,-0.043
same,JUN log2FC,Gene 3725,-0.937
same,KCNMA1 log2FC,Gene 3778,0.170
same,KNG1 log2FC,Gene 3827,-0.057
same,KPNA1 log2FC,Gene 3836,-0.280
same,KPNB1 log2FC,Gene 3837,0.240
same,KRT8 log2FC,Gene 3856,-0.277
same,KRT18 log2FC,Gene 3875,-0.442
same,LCK log2FC,Gene 3932,-0.114
same,LEP log2FC,Gene 3952,-0.051
same,LGALS7 log2FC,Gene 3963,-0.229
same,LIG4 log2FC,Gene 3981,0.035
same,LMNA log2FC,Gene 4000,-0.013
same,LMNB1 log2FC,Gene 4001,-0.018
same,LRP6 log2FC,Gene 4040,-0.118
same,LTBR log2FC,Gene 4055,-0.111
same,LTK log2FC,Gene 4058,-0.062
same,LYN log2FC,Gene 4067,-0.359
same,SMAD3 log2FC,Gene 4088,0.243
same,SMAD6 log2FC,Gene 4091,0.083
same,MAL log2FC,Gene 4118,-0.429
same,MAX log2FC,Gene 4149,-0.351
same,MCF2 log2FC,Gene 4168,0.031
same,MCL1 log2FC,Gene 4170,-1.349
same,MDK log2FC,Gene 4192,0.235
same,MDM2 log2FC,Gene 4193,-0.113
same,MECP2 log2FC,Gene 4204,-0.128
same,MEF2A log2FC,Gene 4205,-0.174
same,MEF2C log2FC,Gene 4208,0.238
same,MEF2D log2FC,Gene 4209,-0.520
same,MAP3K5 log2FC,Gene 4217,-0.660
same,MEN1 log2FC,Gene 4221,0.029
same,KITLG log2FC,Gene 4254,-0.218
same,MGMT log2FC,Gene 4255,-0.055
same,MIF log2FC,Gene 4282,0.230
same,MLH1 log2FC,Gene 4292,0.343
same,MAP3K9 log2FC,Gene 4293,-0.693
same,MAP3K10 log2FC,Gene 4294,0.639
same,MAP3K11 log2FC,Gene 4296,-0.577
same,MMP9 log2FC,Gene 4318,-0.279
same,MNAT1 log2FC,Gene 4331,0.589
same,MNT log2FC,Gene 4335,1.538
same,MPO log2FC,Gene 4353,-0.006
same,CITED1 log2FC,Gene 4435,-0.101
same,MSH2 log2FC,Gene 4436,0.786
same,MSX1 log2FC,Gene 4487,-0.243
same,MUC1 log2FC,Gene 4582,-0.282
same,MUC2 log2FC,Gene 4583,-0.081
same,MUC5AC log2FC,Gene 4586,-0.288
same,MUSK log2FC,Gene 4593,-0.262
same,MX1 log2FC,Gene 4599,0.148
same,MYC log2FC,Gene 4609,0.421
same,MYD88 log2FC,Gene 4615,-0.601
same,GADD45B log2FC,Gene 4616,0.857
same,NBN log2FC,Gene 4683,0.619
same,NDUFS1 log2FC,Gene 4719,0.294
same,NF1 log2FC,Gene 4763,0.451
same,NFATC4 log2FC,Gene 4776,0.296
same,NFE2L2 log2FC,Gene 4780,0.540
same,NFKB1 log2FC,Gene 4790,-0.256
same,NFKBIA log2FC,Gene 4792,-0.656
same,NGFR log2FC,Gene 4804,-0.069
same,NKX3-1 log2FC,Gene 4824,-0.386
same,NME1 log2FC,Gene 4830,0.199
same,NME2 log2FC,Gene 4831,0.205
same,NME3 log2FC,Gene 4832,-0.013
same,NMT1 log2FC,Gene 4836,-0.214
same,NODAL log2FC,Gene 4838,-0.025
same,NOS3 log2FC,Gene 4846,-0.168
same,NOTCH2 log2FC,Gene 4853,0.274
same,NPM1 log2FC,Gene 4869,0.282
same,NPTX1 log2FC,Gene 4884,-0.756
same,NPY5R log2FC,Gene 4889,-0.042
same,SLC11A2 log2FC,Gene 4891,0.320
same,NRAS log2FC,Gene 4893,-0.535
same,NTF3 log2FC,Gene 4908,-1.099
same,NTRK2 log2FC,Gene 4915,-0.265
same,NR4A2 log2FC,Gene 4929,0.442
same,OCLN log2FC,Gene 4950,0.409
same,OPA1 log2FC,Gene 4976,0.350
same,TNFRSF11B log2FC,Gene 4982,0.966
same,OSM log2FC,Gene 5008,-0.008
same,P2RX1 log2FC,Gene 5023,-0.016
same,P2RX4 log2FC,Gene 5025,0.348
same,P2RX7 log2FC,Gene 5027,-0.319
same,SERPINB2 log2FC,Gene 5055,-0.093
same,PAK1 log2FC,Gene 5058,0.071
same,PAK2 log2FC,Gene 5062,-0.103
same,PARK2 log2FC,Gene 5071,-0.149
same,PAWR log2FC,Gene 5074,0.876
same,PAX3 log2FC,Gene 5077,-0.114
same,PAX4 log2FC,Gene 5078,-0.073
same,PAX7 log2FC,Gene 5081,-0.197
same,PCNT log2FC,Gene 5116,0.446
same,PDCD1 log2FC,Gene 5133,-0.284
same,PDCD2 log2FC,Gene 5134,-0.282
same,PDE1A log2FC,Gene 5136,-0.171
same,PDK1 log2FC,Gene 5163,0.405
same,PDK2 log2FC,Gene 5164,1.524
same,PDK4 log2FC,Gene 5166,0.866
same,PDPK1 log2FC,Gene 5170,0.478
same,PHB log2FC,Gene 5245,-0.382
same,SERPINB9 log2FC,Gene 5272,-0.438
same,SERPINB10 log2FC,Gene 5273,0.028
same,PIK3CA log2FC,Gene 5290,0.818
same,PIM1 log2FC,Gene 5292,1.292
same,PIK3R1 log2FC,Gene 5295,0.203
same,PLAGL1 log2FC,Gene 5325,0.317
same,PLAGL2 log2FC,Gene 5326,-1.296
same,PLK1 log2FC,Gene 5347,-0.016
same,PLSCR1 log2FC,Gene 5359,0.371
same,PMAIP1 log2FC,Gene 5366,-1.121
